Key:
[1] = molecular target: T1, KCNJ5^WT (Homo sapiens, UniProt P48544); test: Perforated whole-cell patch clamp, KCNJ5^WT homotetramers in HEK293T cells; type: cell-based; conditions: increasing concentrations, −80 mV (FIG. 12D)
T1 construct: expressed in transfected cells
T1 sequence (P48544 1-419): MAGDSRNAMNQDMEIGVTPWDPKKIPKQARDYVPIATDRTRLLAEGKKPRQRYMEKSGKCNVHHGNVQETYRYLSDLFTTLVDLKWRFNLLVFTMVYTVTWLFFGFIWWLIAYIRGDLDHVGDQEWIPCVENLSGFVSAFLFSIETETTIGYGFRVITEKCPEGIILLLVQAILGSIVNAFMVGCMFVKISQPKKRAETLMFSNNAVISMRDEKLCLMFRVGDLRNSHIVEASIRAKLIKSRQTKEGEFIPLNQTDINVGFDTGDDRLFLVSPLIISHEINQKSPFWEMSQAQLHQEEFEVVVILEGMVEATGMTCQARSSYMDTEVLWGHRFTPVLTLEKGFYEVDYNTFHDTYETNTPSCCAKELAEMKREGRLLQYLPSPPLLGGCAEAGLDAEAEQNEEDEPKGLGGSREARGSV
Experimental: Cation currents were measured with the perforated whole cell recording technique (140 mM NaCl/5 mM KCl bath solution, 140 mM KCl pipette solution for KCNJ5^G151R; 140 mM NaCl/5 mM KCl bath solution, 140 mM KCl, 1.8 mM MgCl2 pipette solution for KCNJ5^L168R; 140 mM KCl bath and pipette solution for KCNJ5^WT). […] Errors represent standard error of the mean, N=3 to 6. […] In contrast, WT currents are not inhibited.
HEK293T cells (American Type Culture Collection) were used for transient expression of GFP-tagged KCNJ5 or KCNJ3. The cells were grown in Dulbecco's modified Eagle medium (DMEM; Invitrogen) supplemented with 10% FBS (Invitrogen) in 5% CO2 and 95% air at 37° C. […]
Within 24 hr after transfection, the cells were treated with trypsin-containing medium (TrypLE Express) (Gibco) for 10 minutes to detach the cells. […] Fluorescence signal (an indication of positive transfection) was detected with an intensified video imaging system including a SIT 68 camera (Long Island Industries). […] After forming a high resistance seal (>2 GΩ), the membrane capacitance was monitored until the whole-cell patch configuration was formed. The cell membrane capacitance was measured and compensated. The K/cation currents were measured from −80 mV to 20 mV with 20 mV steps by an Axon 200A patch-clamp amplifier. […]

[2] = system: CYP11B2 (aldosterone synthase) expression, H295R cells expressing KCNJ5^G151R; test: Real-time PCR of CYP11B2 in H295R cells transfected with KCNJ5^G151R; type: cell-based, human; conditions: 5, 20 or 50 μM for 18 h; p=0.0006 at 20 μM
Experimental: (§1) H295R cells were cultured in DMEM/F12, HEPES (Gibco) supplemented with 2.5% Ultroser G (Pall Biosepra), 1% ITS+ Premix (Corning) and 1% Penicillin/Streptomycin (Gibco). Plasmids were purified using the Endofree Maxi Kit (Qiagen). […] 3×10^6 cells were transfected with 3 μg pIRES eGFP containing no insert, WT or mutant KCNJ5 using an Amaxa Nucleofector I (program P-20) and the Nucleofector Kit R (Lonza). Cells were allowed to recover briefly in RPMI 1640 medium (Gibco). […] After an additional 18 h, RNA was harvested using the RNeasy Mini Kit (Qiagen) following the manufacturer's instructions. 300 ng RNA were transcribed using the Quantitect Reverse Transcription Kit (Qiagen). Expression levels of CYP11B2 and GAPDH were quantified in triplicates in a 7300 Real-Time PCR System (Applied Biosystems) using the Taqman Gene Expression Master Mix and assays Hs01597732_m1 (CYP11B2) or HS02758991_g1 (GAPDH) (all Applied Biosystems). DDCT values were calculated by normalization of DCT values, using the average DCT of vehicle treated empty vector-transfected cells as a reference.
(§2) This cell line is derived from a human adrenocortical carcinoma and represents a commonly used in vitro model of zona glomerulosa aldosterone production (Wang et al. 2012, Horm. Metab. Res. 44:245-250). […]

[3] = system: CYP11B2 (aldosterone synthase) expression, H295R cells expressing KCNJ5^L168R; test: Real-time PCR of CYP11B2 in H295R cells transfected with KCNJ5^L168R; type: cell-based, human; conditions: 5, 20 or 50 μM for 18 h; p=0.0034 at 20 μM
Experimental: as §1, §2

[4] = system: CYP11B2 (aldosterone synthase) expression, H295R cells expressing KCNJ5^WT; test: Real-time PCR of CYP11B2 in H295R cells transfected with KCNJ5^WT; type: cell-based, human; conditions: 5, 20 or 50 μM for 18 h
Experimental: as §1, §2

CC[C@H]1OC(=O)[C@H](C)[C@@H](O[C@H]2C[C@@](C)(OC)[C@@H](O)[C@H](C)O2)[C@H](C)[C@@H](O[C@@H]2O[C@H](C)C[C@H](N(C)C)[C@H]2O)[C@](C)(O)C[C@@H](C)/C(=N\OCOCCOC)[C@H](C)[C@@H](O)[C@]1(C)O [Roxithromycin, roxithromycin]
inhibition of WT currents [1]: not inhibited | expression of CYP11B2 [2]: inhibited expression of CYP11B2 in a dose-dependent fashion | expression of CYP11B2 [3]: inhibited expression of CYP11B2 in a dose-dependent fashion | expression of CYP11B2 [4]: virtually no change

From patent US11484543B2, “Compositions and methods for diagnosing and treating diseases and disorders associated with mutant KCNJ5” (The Rockefeller University, priority 2017, dated 2022)
